Measured values: publication PMC7251097, “Aspartate/asparagine-β-hydroxylase: a high-throughput mass spectrometric assay for discovery of small molecule inhibitors” (Scientific Reports, 2020)
“And” between values parts separate entries of the source, which are not always exact repeats. Identical values can stand only once. Counter-ions that a name gives are not always drawn. Like-named read-outs stand apart in the source and are kept apart here.

Target: T1, His6-AspH315–758 (human aspartate/asparagine-β-hydroxylase, AspH) (Homo sapiens, UniProt Q12797)
T1 construct: N-Terminally His6-tagged human AspH315–758 (His6-AspH315–758) was produced in E. coli BL21 (DE3) cells; made in house; host or cells: E. coli BL21 (DE3), pET-28a(+) vector
T1 sequence (Q12797 315-758): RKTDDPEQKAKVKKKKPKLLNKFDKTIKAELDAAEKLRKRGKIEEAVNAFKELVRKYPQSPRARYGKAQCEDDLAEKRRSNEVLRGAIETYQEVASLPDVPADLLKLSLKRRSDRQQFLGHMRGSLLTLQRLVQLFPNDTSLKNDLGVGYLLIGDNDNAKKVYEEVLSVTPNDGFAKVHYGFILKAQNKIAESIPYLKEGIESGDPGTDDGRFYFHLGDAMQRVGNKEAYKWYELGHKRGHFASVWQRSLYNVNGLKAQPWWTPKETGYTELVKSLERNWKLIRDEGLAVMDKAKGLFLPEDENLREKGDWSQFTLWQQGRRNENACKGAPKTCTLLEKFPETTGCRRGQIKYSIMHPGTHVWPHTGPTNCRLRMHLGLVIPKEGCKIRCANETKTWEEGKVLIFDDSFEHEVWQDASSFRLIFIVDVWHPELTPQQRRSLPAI
Test: SPE-MS AspH inhibition assay (LOPAC screen at fixed 20 μM and IC50 dose-response), hydroxylation of cyclic peptide hFX-CP101–119
Type: biochemical

[1] = LOPAC compound at fixed 20 uM, plate 1, normalised to DMSO and 2,4-PDCA controls
[2] = LOPAC compound at fixed 20 uM, substrate conversion, plate 1
[3] = LOPAC compound at 20uM, plate 2, conversion of substrate peptide
[4] = LOPAC compound at 20uM, plate 2, normalised to DMSO and 2,4-PDCA controls
[5] = LOPAC compound at 20uM, plate 3, conversion of substrate peptide
[6] = LOPAC compound at 20uM, plate 2, normalised to DMSO and 2,4-PDCA controls, read-out: Plate 2 (% inhibition)
[7] = LOPAC Plate 4, compound at 20 uM
[8] = LOPAC Plate 4, compound at 20 uM, substrate conversion

CCCn1c(=O)c2[nH]c(-c3ccc(S(=O)(=O)O)cc3)nc2n(CCC)c1=O [1,3-Dipropyl-8-p-sulfophenylxanthine] was tested, and the “Plate 1 (% inhibition)” value [1] was -2.36% and the “Plate 1 (% conversion)” value [2] was 36.66%.
OC[C@H]1NC[C@@H](O)[C@@H]1O [1,4-Dideoxy-1,4-imino-D-arabinitol] was tested, and the “Plate 2 (% conversion)” value [3] was 35.43% and the “Plate 2 (% inhibition)” value [4] was 1.56%.
With Oc1cccc2c(O)nccc12 [1,5-Isoquinolinediol] the “Plate 3 (% conversion)” value [5] was 40.11%.
In the case of Cn1c(=O)[nH]c2ncn(C)c2c1=O [1,7-Dimethylxanthine], the “Plate 2 (% conversion)” value [3] is reported as 35.50% and the inhibition at 20 µM [6] is reported as 1.36%.
NCCCCCCCCCCN [1,10-Diaminodecane] was tested, and the “Plate 2 (% conversion)” value [3] was 36.39% and the inhibition at 20 µM [6] was -1.3%.
For O.c1cnc2c(c1)ccc1cccnc12 [1,10-Phenanthroline monohydrate, reference compound], the “% conversion” value was 3.10%, the inhibition at 20 µM was 97.8% and the inhibition at 20 µM (read-out: Inhibition at 20 µM [%]) was 97.8%.
With Cl.c1ccc2c(N3CCNCC3)cccc2c1 [1-(1-Naphthyl)piperazine hydrochloride] the “% conversion” value was 30.74%.
With Nn1nnc2ccccc21 [1-Aminobenzotriazole] the “Plate 1 (% inhibition)” value [1] was -4.79% and the “Plate 1 (% conversion)” value [2] was 37.48%.
OC[C@H]1NC[C@H](O)[C@@H](O)[C@@H]1O [1-Deoxynojirimycin hydrochloride] was tested, and the inhibition at 20 µM (read-out: Plate 2 (% inhibition)) was 2.25%.
With Cl.Cl.Cn1cnc(CCN)c1 [1-Methylhistamine dihydrochloride] the “Plate 3 (% conversion)” value was 37.48%.
Cn1ccnc1 [1-Methylimidazole] was tested, and the “Plate 3 (% conversion)” value was 20.25%.
For S=C(Nc1ccccc1)Nc1nccs1 [1-Phenyl-3-(2-thiazolyl)-2-thiourea], the “Plate 3 (% conversion)” value was 40.98%.
For N=C(N)NC(=N)Nc1ccccc1 [1-Phenylbiguanide], the “% inhibition” value [7] was 12.13% and the “% conversion” value [8] was 32.33%.
In the case of FC(F)(F)c1ccccc1-n1ccnc1 [1-[2-(Trifluoromethyl)phenyl]imidazole], the “% conversion” value [8] is reported as 26.55%.
For c1ccc(-c2ccccn2)nc1 [2,2-Bipyridyl], the “Plate 2 (% conversion)” value was 27.94% and the “Plate 2 (% inhibition)” value (20 µM) was 23.93%.
For CC(=O)C(C)=NO [2,3-Butanedione monoxime], the “Plate 1 (% inhibition)” value [1] was -3.18% and the “Plate 1 (% conversion)” value [2] was 36.94%.
CC(=O)C(C)=O [2,3-Butanedione] was tested, and the “Plate 2 (% conversion)” value [3] was 38.17% and the inhibition at 20 µM [6] was -6.62%.
COC1=C(OC)C(=O)c2ccccc2C1=O [2,3-Dimethoxy-1,4-naphthoquinone] was tested, and the “Plate 2 (% conversion)” value was 33.76% and the “Plate 2 (% inhibition)” value (20 µM) was 6.56%.
For Nc1ccn([C@H]2CC[C@@H](CO)O2)c(=O)n1 [2,3-dideoxycytidine], the “Plate 2 (% conversion)” value [3] was 37.68% and the “Plate 2 (% inhibition)” value [4] was -5.15%.
O=C(O)c1ccnc(C(=O)O)c1 [2,4-pyridinedicarboxylic acid] was tested, and the “Plate 2 (% inhibition)” value (100 uM 2,4-PDCA control wells (columns 1, 2), plate 2) was 100.30% and 100.62% and 100.70%, the “% inhibition” value (LOPAC Plate 3, 100 uM 2,4-PDCA control wells (columns 1, 2)) was 99.57% and 99.80% and the “Plate 1 (% inhibition)” value (plate 1) was 100.60% and 99.95% and 100.29%. For the same molecule, the “Plate 5 (% conversion), 2,4-PDCA control” value (plate 5, 100 uM 2,4-PDCA controls, plate columns 1, 2) was 2.34%.
For Nc1nc(Cl)nc2c1ncn2[C@@H]1O[C@H](CO)[C@@H](O)[C@H]1O [2-Chloroadenosine], the “Plate 1 (% inhibition)” value [1] was -4.87% and the “Plate 1 (% conversion)” value [2] was 37.51%.
For NCC(O)(CS(=O)(=O)O)c1ccc(Cl)cc1 (stereo not shown) [2-Hydroxysaclofen], the “Plate 1 (% inhibition)” value [1] was -6.82% and the “Plate 1 (% conversion)” value [2] was 38.16%.
With Cc1[nH]c2ccc(O)cc2c1CCN.O=C(O)/C=C\C(=O)O [2-Methyl-5-hydroxytryptamine maleate] the “Plate 3 (% conversion)” value was 35.71%.
With Nc1nc(Nc2ccccc2)nc2c1ncn2[C@@H]1O[C@H](CO)[C@@H](O)[C@H]1O [2-Phenylaminoadenosine] the “% inhibition” value [7] was -10.62% and the “% conversion” value [8] was 40.09%.
For COc1cc2c(cc1O)CC[C@@H]1[C@@H]2CC[C@]2(C)[C@@H](O)CC[C@@H]12 [2-methoxyestradiol], the “Plate 3 (% conversion)” value [5] was 41.59%.
O=c1oc(Cl)c(Cl)c2ccccc12 [3,4-Dichloroisocoumarin] was tested, and the “Plate 2 (% conversion)” value was 29.65% and the “Plate 2 (% inhibition)” value [4] was 18.85%.
For O=C(O)Cc1ccc(O)c(O)c1 [3,4-Dihydroxyphenylacetic acid, reference compound], the inhibition at 20 µM (AspH activity, fixed compound concentration 20 μM, initial LOPAC screen, 0.5%v/v DMSO, read-out: Inhibition at 20 µM [%]) was 98.6%.
O=[N+]([O-])c1cc(O)c(O)c([N+](=O)[O-])c1 [3,5-Dinitrocatechol, reference compound] was tested, and the “Plate 2 (% conversion)” value was 2.07% and the “Plate 2 (% inhibition)” value (20 µM) was 101.20%.
With NCCCS(=O)(=O)O.[Na] [3-Amino-1-propanesulfonic acid sodium] the “Plate 1 (% inhibition)” value [1] was -7.08% and the “Plate 1 (% conversion)” value [2] was 38.25%.
N#CCCN.N#CCCN.O=C(O)/C=C/C(=O)O [3-Aminopropionitrile fumarate] was tested, and the “Plate 1 (% inhibition)” value [1] was 48.97% and the “Plate 1 (% conversion)” value [2] was 19.43%.
In the case of NCCCP(=O)(O)O [3-Aminopropylphosphonic acid], the “Plate 1 (% conversion)” value is reported as 37.53% and the “Plate 1 (% inhibition)” value is reported as -4.94%.
With Cc1cn([C@H]2C[C@H](N=[N+]=[N-])[C@@H](CO)O2)c(=O)[nH]c1=O [3-Azido-3-deoxythymidine] the “Plate 1 (% inhibition)” value [1] was -7.24% and the “Plate 1 (% conversion)” value [2] was 38.30%.
O=[N+]([O-])c1cccc2c(Br)n[nH]c12 [3-Bromo-7-nitroindazole] was tested, and the “Plate 1 (% inhibition)” value [1] was 1.81% and the “Plate 1 (% conversion)” value [2] was 35.26%.
In the case of N[C@@H](Cc1ccc(O)c(I)c1)C(=O)O [3-Iodo-L-tyrosine], the “Plate 3 (% conversion)” value [5] is reported as 30.44%.
In the case of CC(C)Cn1c(=O)n(C)c(=O)c2[nH]cnc21 [3-Isobutyl-1-methylxanthine], the “Plate 3 (% conversion)” value is reported as 38.13%.
Nc1c[n+](N2CCOCC2)no1.[Cl-] [3-Morpholinosydnonimine hydrochloride] was tested, and the “Plate 1 (% inhibition)” value [1] was 64.67% and the “Plate 1 (% conversion)” value [2] was 14.15%.
In the case of O=C(O)CC[N+](=O)[O-] [3-Nitropropionic acid], the “Plate 3 (% conversion)” value is reported as 32.27%.
For CCCn1c(=O)[nH]c(=O)c2nc[nH]c21 [3-n-Propylxanthine], the “Plate 3 (% conversion)” value [5] was 38.43%.
In the case of Nc1ccc2c3c(cccc13)C(=O)NC2=O [4-Amino-1,8-naphthalimide], the “Plate 1 (% inhibition)” value [1] is reported as -1.00% and the “Plate 1 (% conversion)” value [2] is reported as 36.21%.
For N=C(N)c1ccc(N)cc1 [4-Aminobenzamidine dihydrochloride], the “Plate 1 (% inhibition)” value [1] was -9.05% and the “Plate 1 (% conversion)” value [2] was 38.91%.
For Nc1ccncc1 [4-Aminopyridine], the “Plate 1 (% conversion)” value was 34.98%.
In the case of C[N+]1(C)CCC(OC(=O)C(c2ccccc2)c2ccccc2)CC1.[I-] [4-DAMP], the “% inhibition” value [7] is reported as -3.63% and the “% conversion” value [8] is reported as 37.71%.
In the case of COc1cc(CC(=O)O)ccc1O [4-Hydroxy-3-methoxyphenylacetic acid], the “Plate 2 (% conversion)” value is reported as 38.57% and the “Plate 2 (% inhibition)” value (20 µM) is reported as -7.80%.
In the case of Cl.NCCc1ccc(O)cc1 [4-Hydroxyphenethylamine hydrochloride], the “% inhibition” value [7] is reported as -7.46% and the “% conversion” value [8] is reported as 39.01%.
With O=C(O)C=Cc1c[nH]cn1 [4-Imidazoleacrylic acid] the “% conversion” value was 20.39%.
With Cl.OCc1c[nH]cn1 [4-Imidazolemethanol hydrochloride] the “Plate 2 (% conversion)” value was 36.75% and the “Plate 2 (% inhibition)” value (20 µM) was -2.37%.
In the case of O=C1NC(=O)C(c2ccccc2)(c2ccccc2)N1 [5,5-Diphenylhydantoin], the “Plate 2 (% conversion)” value [3] is reported as 35.84% and the inhibition at 20 µM [6] is reported as 0.33%.
With O=C(O)c1cc(=O)c2c(Cl)cc(Cl)cc2[nH]1 [5,7-Dichlorokynurenic acid] the “Plate 2 (% conversion)” value [3] was 35.63% and the “Plate 2 (% inhibition)” value [4] was 0.98%.
In the case of CN(C)c1nc(N)c(C(=O)NC(=N)N)nc1Cl [5-(N,N-Dimethyl)amiloride hydrochloride], the “Plate 1 (% inhibition)” value [1] is reported as -6.54% and the “Plate 1 (% conversion)” value [2] is reported as 38.07%.
N=C(N)NC(=O)c1nc(Cl)c(N2CCCCCC2)nc1N [5-(N,N-hexamethylene)amiloride] was tested, and the “Plate 1 (% inhibition)” value [1] was -28.14% and the “Plate 1 (% conversion)” value [2] was 45.32%.
In the case of Cl.NCCCCC(=O)O [5-Aminovaleric acid hydrochloride], the “Plate 1 (% inhibition)” value [1] is reported as 15.05% and the “Plate 1 (% conversion)” value [2] is reported as 30.82%.
With NCCc1c[nH]c2ccc(C(N)=O)cc12.O=C(O)/C=C\C(=O)O [5-Carboxamidotryptamine maleate] the “Plate 2 (% conversion)” value was 35.62% and the “Plate 2 (% inhibition)” value (20 µM) was 0.99%.
For O=C(O)c1cc2cc(F)ccc2[nH]1 [5-Fluoroindole-2-carboxylic acid], the “Plate 1 (% conversion)” value was 31.84% and the “Plate 1 (% inhibition)” value was 12.00%.
With O=c1[nH]cc(F)c(=O)[nH]1 [5-Fluorouracil] the “Plate 2 (% conversion)” value [3] was 36.11% and the inhibition at 20 µM [6] was -0.46%.
N[C@@H](Cc1c[nH]c2ccc(O)cc12)C(=O)O [5-Hydroxy-L-tryptophan] was tested, and the “Plate 2 (% conversion)” value [3] was 37.59% and the inhibition at 20 µM [6] was -4.87%.
For O=C(O)Cc1c[nH]c2ccc(O)cc12 [5-Hydroxyindolacetic acid], the “Plate 2 (% inhibition)” value [4] was -3.79%.
With CCNC(=O)[C@H]1O[C@@H](n2cnc3c(N)ncnc32)[C@H](O)[C@@H]1O [5-N-Ethylcarboxamidoadenosine] the “Plate 2 (% conversion)” value [3] was 35.71% and the “Plate 2 (% inhibition)” value [4] was 0.73%.
